Measured values: patent US20140221346A1, “THERAPEUTIC COMPOUNDS” (Gilead Sciences, Inc., priority 2013, published 2014)

Tests used:
HIV-IIIb = test: Test A: Antiviral Assay in MT4 Cells; assay type: cell-based, HIV-1; conditions: Human immunodeficiency virus 1, IIIB, MT4, 120 h, read-out: % inhibition at 3 μM
Description: (§1) For the antiviral assay, 40 μL of 1× test concentration of 3-fold serially diluted compound in culture medium with 10% FBS was added to each well of a 384-well plate (10 concentrations) in quadruplicate. MT-4 cells were next mixed with HIV-IIIb at an m.o.i of 0.003 for 1 hour, after which time 35 μL of virus/cell mixture (2000 cells) was immediately added to each well containing 40 μL of diluted compound. The plates were then incubated at 37° C. for 5 days. After 5 days of incubation, 25 μl of 2× concentrated CellTiter-Glo™ Reagent (catalog #G7571, Promega Biosciences, Inc., Madison, Wis.) was added to each well containing MT-4 cells. Cell lysis was carried out by incubating at room temperature for 10 min and then chemiluminescence was read.

[1] = Test B: Cytotoxicity Assay; assay type: cell-based; conditions: human, uninfected MT-4 cells, same protocol as Test A, CellTiter-Glo
Description: as §1
Compound cytotoxicity and the corresponding CC50 values was determined using the same protocol as described in the antiviral assay (Test A) except that uninfected cells were used.

| Structure (SMILES) | inhibition at 3 µM (HIV-IIIb) [%] | CC50 at 5 days [1] [µM] |
| --- | --- | --- |
| COc1cc(-c2ccc(N)nc2C(Cc2cc(F)cc(F)c2)NC(=O)Cc2c[nH]c3ccc(F)cc23)ccn1 (stereo not shown) [Compound 10, N-(1-(6-amino-2′-methoxy-[3,4′-bipyridin]-2-yl)-2-(3,5-difluorophenyl)ethyl)-2-(5-fluoro-1H-indol-3-yl)acetamide] | 38 | 23.8 |
| NC(=O)c1cc(-c2cnc(NCCn3ccnn3)nc2[C@H](Cc2cc(F)cc(F)c2)NC(=O)Cn2nc(C(F)F)c3c2C(F)(F)CCC3(F)F)ccc1F [Compound 23F, (S)-5-(2-((2-(1H-1,2,3-triazol-1-yl)ethyl)amino)-4-(1-(2-(3-(difluoromethyl)-4,4,7,7-tetrafluoro-4,5,6,7-tetrahydro-1H-indazol-1-yl)acetamido)-2-(3,5-difluorophenyl)ethyl)pyrimidin-5-yl)-2-fluorobenzamide] | 77 | 32.7 |
| NC(=O)c1cc(-c2cnc(N3CCC(=O)CC3)nc2[C@H](Cc2cc(F)cc(F)c2)NC(=O)Cn2nc(C(F)F)c3c2C(F)(F)CCC3(F)F)ccc1F [Compound 19C, (S)-5-(4-(1-(2-(3-(difluoromethyl)-4,4,7,7-tetrafluoro-4,5,6,7-tetrahydro-1H-indazol-1-yl)acetamido)-2-(3,5-difluorophenyl)ethyl)-2-(4-oxopiperidin-1-yl)pyrimidin-5-yl)-2-fluorobenzamide] | 26 | > 51.5 |
| NC(=O)c1cc(-c2cnc(N3CCC(O)CC3)nc2[C@H](Cc2cc(F)cc(F)c2)NC(=O)Cn2nc(C(F)F)c3c2C(F)(F)CCC3(F)F)ccc1F [Compound 21, (S)-5-(4-(1-(2-(3-(difluoromethyl)-4,4,7,7-tetrafluoro-4,5,6,7-tetrahydro-1H-indazol-1-yl)acetamido)-2-(3,5-difluorophenyl)ethyl)-2-(4-hydroxypiperidin-1-yl)pyrimidin-5-yl)-2-fluorobenzamide] | 41 | 22.5 |
| CNc1ncc(-c2ccc(F)c(C(N)=O)c2)c([C@H](Cc2cc(F)cc(F)c2)NC(=O)Cn2nc(C(F)F)c3c2C(F)(F)CCC3(F)F)n1 [Compound 14B, (S)-5-(4-(1-(2-(3-(difluoromethyl)-4,4,7,7-tetrafluoro-4,5,6,7-tetrahydro-1H-indazol-1-yl)acetamido)-2-(3,5-difluorophenyl)ethyl)-2-(methylamino)pyrimidin-5-yl)-2-fluorobenzamide] | 89 | 28.6 |
| NC(=O)c1cc(-c2ccc(N)nc2[C@@H](Cc2cc(F)cc(F)c2)NC(=O)Cc2c[nH]c3ccc(F)cc23)ccc1F [Compound 2, (R)-5-(6-amino-2-(2-(3,5-difluorophenyl)-1-(2-(5-fluoro-1H-indol-3-yl)acetamido)ethyl)pyridin-3-yl)-2-fluorobenzamide] | 0 | 25.2 |
| O=C(Cn1nc(C(F)F)c2c1C(F)(F)CCC2(F)F)N[C@@H](Cc1cc(F)cc(F)c1)c1nc(-n2cncn2)ncc1-c1ccc2c(c1)C(=O)NC2 [Compound 29D, (S)-2-(3-(difluoromethyl)-4,4,7,7-tetrafluoro-4,5,6,7-tetrahydro-1H-indazol-1-yl)-N-(2-(3,5-difluorophenyl)-1-(5-(3-oxoisoindolin-5-yl)-2-(1H-1,2,4-triazol-1-yl)pyrimidin-4-yl)ethyl)acetamide] | 101 | 40 |
| NC(=O)c1cc(-c2cnc(NC3CCOC3)nc2[C@H](Cc2cc(F)cc(F)c2)NC(=O)Cn2nc(C(F)F)c3c2C(F)(F)CCC3(F)F)ccc1F (stereo partly drawn) [Compound 25, 5-(4-((S)-1-(2-(3-(difluoromethyl)-4,4,7,7-tetrafluoro-4,5,6,7-tetrahydro-1H-indazol-1-yl)acetamido)-2-(3,5-difluorophenyl)ethyl)-2-((tetrahydrofuran-3-yl)amino)pyrimidin-5-yl)-2-fluorobenzamide] | 69 | 37.7 |
